Measured values from patent US10450317B2, “Notch pathway signaling inhibitor compounds” (Eli Lilly and Company, priority 2015, dated 2019).
Marks after values point to notes of the source that are not given here.

Tests used:
[1] = system: hair cell markers Atoh1, Pou4f3, Myo7A in gentamicin-damaged organ of Corti explants; assay: Organ of Corti explant, gene expression analysis after ototoxic (gentamicin) damage; type: cell-based, mice; conditions: 5 μM after gentamicin (100 μM) damage, n = 11
Experimental: A variation of the organ of Corti organotypic explant culture is used to model hair cell regeneration in response to subsequent compound treatment after ototoxic damage. This damage model is carried out according to the method described in Korrapati et al., PLOSOne, 2013, 8(8), e73276 where a 95% reduction in mid-apical hair cells was reported. On Day 0, to damage and selectively kill hair cells within the organ of Corti explant, aminoglycoside treatment (gentamicin (100 μM)) is added for 18-24 hours. On Day 1, gentamicin is removed and treatment with Compound 1, Isomer 2 and Compound 2, Isomer 2 at 5 μM began. Explant culture continues for 4 days total at which point the culture is prepared for the qRT-PCR protocol described above. Visible confirmation of gentamicin-induced damage is easily observed between cultures treated with negative control compounds. However, quantitative measurement for the response to Compound 1, Isomer 2 and Compound 2, Isomer 2 treatment following ototoxic damage obtained by qRT-PCR measured increases in gene expression for prosensory hair cell markers Atoh1 and Pou4f3 and the hair cell marker Myo7A.
Data represent the percent increase in gene expression relative to negative control-treated samples with the gentamicin-induced hair cell damage. (*, significant difference from negative control, p<0.05)

Atoh1 = assay: Hair cell marker induction in whole otic capsule culture (RT-PCR); type: cell-based, mice; conditions: otic capsule explants, 48 hours in culture, vs vehicle-only control, n of 12-17
Excerpt: The otic capsule (otic capsule explant), comprised of the cochlear bony labrinth and vestibular systems, is dissected from 1 to 4 day-old postnatal mice (transgenic strain: Atoh 1-driven nGFP; Lumpkin E A, et al., Gene Expr. Patterns, 2003, 3(4): 389-95) of both sexes generally according to the method described in Parker et al., Journal of Visualized Experiments, 2010, (36), e1685. The entire otic capsule is isolated from the parietal bone and maintained ex-vivo in a roller tube culture system for up to 3 days in medium containing DMEM, high glucose, 5% FBS, 5% horse serum, 1 μg/ml ampicillin.
The otic capsule explant is used to evaluate test compound, in various delivery vehicles, penetrance into the inner ear. Tests are carried out with compositions of Compound 1, Isomer 2, (7.2 mM) in various delivery vehicles. […]
The composition is allowed to remain for 1-2 hours then washed away with culture medium. […] The cochlea is broken open and the entire organ of Corti is then dissected out and prepared for quantitative RT-PCR to measure Atoh1 hair cell marker expression levels (as described in organ of Corti explant assay, above). […] Up-regulation of Atoh1 by Compound 1, Isomer 2, in all tested compositions (2-3 fold, n of 12-17) is measured in comparison to vehicle-only control-treated otic capsule explants after 48 hours in culture.

Compound	% Induction Over Control-treated Damaged Organ of Corti, Atoh1 (Mean ± SEM) [1]	% Induction Over Control-treated Damaged Organ of Corti, Myo7A (Mean ± SEM) [1]	% Induction Over Control-treated Damaged Organ of Corti, Pou4f3 (Mean ± SEM) [1]	Up-regulation of Atoh1 in all tested compositions (Atoh1)
C[C@H](NC(=O)CCC(F)(F)F)C(=O)NC1C(=O)C=C2N(CCC2(C)C)c2ncccc21 (single isomer, unassigned) [Compound 2, Isomer 2]	169 ± 24; <0.05* %	52 ± 15; not signif. %	28 ± 11; 0.0633%	–
COc1ccc2c(c1)N1CCC(C)(C)C1=CC(=O)C2NC(=O)[C@H](C)NC(=O)CCC(F)(F)F (single isomer, unassigned) [Compound 1, Isomer 2]	242 ± 16; %	102 ± 18; 0.0522%	114 ± 25; <0.05* %	2-3 fold
